In ChEMBL document CHEMBL1138167, “Asymmetric synthesis of the L-fuco-nojirimycin, a nanomolar alpha-L-fucosidase inhibitor” (Bioorg Med Chem Lett, 2006):
pIC50, pKi: −log10 of the molar value.

Target: T1, Tissue alpha-L-fucosidase (Bos taurus, UniProt Q2KIM0)
T1 sequence (Q2KIM0 whole entry): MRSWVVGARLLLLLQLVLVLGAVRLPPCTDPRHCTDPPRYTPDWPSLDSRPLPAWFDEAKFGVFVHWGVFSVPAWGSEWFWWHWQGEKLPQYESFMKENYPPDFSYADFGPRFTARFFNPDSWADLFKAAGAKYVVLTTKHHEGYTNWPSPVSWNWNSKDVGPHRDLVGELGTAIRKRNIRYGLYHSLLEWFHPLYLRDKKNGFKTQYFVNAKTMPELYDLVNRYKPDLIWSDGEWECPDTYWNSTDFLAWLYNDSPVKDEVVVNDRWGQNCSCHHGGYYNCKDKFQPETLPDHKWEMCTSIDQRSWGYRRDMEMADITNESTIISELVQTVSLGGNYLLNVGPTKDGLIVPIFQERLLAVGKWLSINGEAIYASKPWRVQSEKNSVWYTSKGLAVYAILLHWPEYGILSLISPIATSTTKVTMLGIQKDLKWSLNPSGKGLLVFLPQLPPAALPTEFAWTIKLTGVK
Test: Inhibition of bovine alpha-L-fucosidase

Row | Compound | pKi | pIC50
1 | C[C@@H]1N[C@H](S(=O)(=O)O)[C@@H](O)[C@H](O)[C@@H]1O | 9.00 | 
2 | C[C@@H]1NC(O)[C@@H](O)[C@H](O)[C@@H]1O (some centres not stated) | 9.00 | 
3 | C[C@H]1NC[C@H](O)[C@@H](O)[C@H]1O | 3.18 | 
4 | C[C@@H]1NC[C@@H](O)[C@H](O)[C@@H]1O [DEOXYFUCONOJIRIMYCIN] | 8.52 | 8.30

The remaining compounds from weak to strong by pKi, led by results:

Row | pKi | pIC50 | Compound
5 | 4.89 |  | C[C@H]1N[C@@H](S(=O)(=O)O)[C@H](O)[C@@H](O)[C@H]1O
6 | 5.52 |  | C[C@H]1NC(O)[C@H](O)[C@@H](O)[C@H]1O (some centres not stated)
